Reference: the CheMixHub viscosity set
± gives the uncertainty stated by the source.

Test: xn = mol fraction of the nth substance listed

Work on `Clc1cccc2ccccc12` + CCCCCO yielded a viscosity (298.15 K, 101.33 kPa, x1 = 0.1019) of 3.204 ± 0.041 mPa·s, a viscosity (298.15 K, 101.33 kPa, x1 = 0.1914) of 3.078 ± 0.048 mPa·s and a viscosity (298.15 K, 101.33 kPa, x1 = 0.3014) of 2.928 ± 0.057 mPa·s. The viscosity (298.15 K, 101.33 kPa, x1 = 0.371) was 2.833 ± 0.063 mPa·s, the viscosity (298.15 K, 101.33 kPa, x1 = 0.4944) was 2.708 ± 0.075 mPa·s and the viscosity (298.15 K, 101.33 kPa, x1 = 0.6006) was 2.669 ± 0.087 mPa·s. The viscosity (298.15 K, 101.33 kPa, x1 = 0.6961) was 2.659 ± 0.098 mPa·s, the viscosity (298.15 K, 101.33 kPa, x1 = 0.7909) was 2.702 ± 0.11 mPa·s and the viscosity (298.15 K, 101.33 kPa, x1 = 0.9013) was 2.761 ± 0.13 mPa·s. For the same compound, the viscosity (303.15 K, 101.33 kPa, x1 = 0.1019) was 2.83 ± 0.037 mPa·s, the viscosity (303.15 K, 101.33 kPa, x1 = 0.1914) was 2.704 ± 0.042 mPa·s and the viscosity (303.15 K, 101.33 kPa, x1 = 0.3014) was 2.555 ± 0.05 mPa·s. The viscosity (303.15 K, 101.33 kPa, x1 = 0.371) was 2.473 ± 0.056 mPa·s, the viscosity (303.15 K, 101.33 kPa, x1 = 0.4944) was 2.388 ± 0.066 mPa·s and the viscosity (303.15 K, 101.33 kPa, x1 = 0.6006) was 2.364 ± 0.077 mPa·s. It also gave a viscosity (303.15 K, 101.33 kPa, x1 = 0.6961) of 2.358 ± 0.087 mPa·s, a viscosity (303.15 K, 101.33 kPa, x1 = 0.7909) of 2.393 ± 0.099 mPa·s and a viscosity (303.15 K, 101.33 kPa, x1 = 0.9013) of 2.464 ± 0.11 mPa·s. The viscosity (308.15 K, 101.33 kPa, x1 = 0.1019) was 2.469 ± 0.032 mPa·s, the viscosity (308.15 K, 101.33 kPa, x1 = 0.1914) was 2.37 ± 0.037 mPa·s and the viscosity (308.15 K, 101.33 kPa, x1 = 0.3014) was 2.232 ± 0.044 mPa·s. The viscosity (308.15 K, 101.33 kPa, x1 = 0.371) was 2.179 ± 0.049 mPa·s, the viscosity (308.15 K, 101.33 kPa, x1 = 0.4944) was 2.115 ± 0.059 mPa·s and the viscosity (308.15 K, 101.33 kPa, x1 = 0.6006) was 2.107 ± 0.069 mPa·s. For the same compound, the viscosity (308.15 K, 101.33 kPa, x1 = 0.6961) was 2.107 ± 0.078 mPa·s, the viscosity (308.15 K, 101.33 kPa, x1 = 0.7909) was 2.134 ± 0.088 mPa·s and the viscosity (308.15 K, 101.33 kPa, x1 = 0.9013) was 2.217 ± 0.1 mPa·s.
`COC(C)(C)C` + C1CCCCC1 showed a viscosity (303.15 K, 101 kPa, x1 = 0.132) of 0.693 ± 0.005 mPa·s, a viscosity (303.15 K, 101 kPa, x1 = 0.2612) of 0.609 ± 0.004 mPa·s and a viscosity (303.15 K, 101 kPa, x1 = 0.3989) of 0.536 ± 0.004 mPa·s. It also gave a viscosity (303.15 K, 101 kPa, x1 = 0.5216) of 0.485 ± 0.004 mPa·s, a viscosity (303.15 K, 101 kPa, x1 = 0.5654) of 0.466 ± 0.004 mPa·s and a viscosity (303.15 K, 101 kPa, x1 = 0.7149) of 0.42 ± 0.003 mPa·s. It also gave a viscosity (303.15 K, 101 kPa, x1 = 0.8393) of 0.384 ± 0.003 mPa·s.
Compound `CCCCn1cc[n+](C)c1.F[P-](F)(F)(F)(F)F` + CO has a viscosity (298.15 K, 101 kPa, x1 = 0.7082) of 45.95 ± 3 mPa·s.
`COCOCOCOCOC` + COCOCOCOC showed a viscosity (293.15 K, 100 kPa, x2 = 0.12) of 1.895 ± 0.054 mPa·s.
Work on `Clc1ccccc1` + CN1CCCC1=O yielded a viscosity (303.15 K, 101 kPa, x2 = 0.1055) of 0.8395 ± 0.021 mPa·s, a viscosity (303.15 K, 101 kPa, x2 = 0.2097) of 0.9497 ± 0.021 mPa·s and a viscosity (303.15 K, 101 kPa, x2 = 0.3127) of 1.057 ± 0.022 mPa·s. The viscosity (303.15 K, 101 kPa, x2 = 0.4144) was 1.153 ± 0.022 mPa·s, the viscosity (303.15 K, 101 kPa, x2 = 0.5149) was 1.242 ± 0.022 mPa·s and the viscosity (303.15 K, 101 kPa, x2 = 0.6142) was 1.322 ± 0.022 mPa·s. The viscosity (303.15 K, 101 kPa, x2 = 0.7124) was 1.39 ± 0.023 mPa·s, the viscosity (303.15 K, 101 kPa, x2 = 0.8094) was 1.455 ± 0.023 mPa·s and the viscosity (303.15 K, 101 kPa, x2 = 0.9052) was 1.508 ± 0.023 mPa·s. The viscosity (308.15 K, 101 kPa, x2 = 0.1055) was 0.7814 ± 0.021 mPa·s, the viscosity (308.15 K, 101 kPa, x2 = 0.2097) was 0.8809 ± 0.021 mPa·s and the viscosity (308.15 K, 101 kPa, x2 = 0.3127) was 0.9724 ± 0.021 mPa·s. The viscosity (308.15 K, 101 kPa, x2 = 0.4144) was 1.059 ± 0.022 mPa·s, the viscosity (308.15 K, 101 kPa, x2 = 0.5149) was 1.14 ± 0.022 mPa·s and the viscosity (308.15 K, 101 kPa, x2 = 0.6142) was 1.207 ± 0.022 mPa·s. For the same compound, the viscosity (308.15 K, 101 kPa, x2 = 0.7124) was 1.267 ± 0.022 mPa·s, the viscosity (308.15 K, 101 kPa, x2 = 0.8094) was 1.323 ± 0.022 mPa·s and the viscosity (308.15 K, 101 kPa, x2 = 0.9052) was 1.366 ± 0.022 mPa·s. For the same compound, the viscosity (313.15 K, 101 kPa, x2 = 0.1055) was 0.737 ± 0.021 mPa·s, the viscosity (313.15 K, 101 kPa, x2 = 0.2097) was 0.8284 ± 0.021 mPa·s and the viscosity (313.15 K, 101 kPa, x2 = 0.3127) was 0.9144 ± 0.021 mPa·s. It also gave a viscosity (313.15 K, 101 kPa, x2 = 0.4144) of 0.9933 ± 0.021 mPa·s, a viscosity (313.15 K, 101 kPa, x2 = 0.5149) of 1.067 ± 0.022 mPa·s and a viscosity (313.15 K, 101 kPa, x2 = 0.6142) of 1.132 ± 0.022 mPa·s. The viscosity (313.15 K, 101 kPa, x2 = 0.7124) was 1.187 ± 0.022 mPa·s, the viscosity (313.15 K, 101 kPa, x2 = 0.8094) was 1.24 ± 0.022 mPa·s and the viscosity (313.15 K, 101 kPa, x2 = 0.9052) was 1.282 ± 0.022 mPa·s. The viscosity (318.15 K, 101 kPa, x2 = 0.1055) was 0.6786 ± 0.021 mPa·s, the viscosity (318.15 K, 101 kPa, x2 = 0.2097) was 0.7611 ± 0.021 mPa·s and the viscosity (318.15 K, 101 kPa, x2 = 0.3127) was 0.8372 ± 0.021 mPa·s. The viscosity (318.15 K, 101 kPa, x2 = 0.4144) was 0.9111 ± 0.021 mPa·s, the viscosity (318.15 K, 101 kPa, x2 = 0.5149) was 0.9802 ± 0.021 mPa·s and the viscosity (318.15 K, 101 kPa, x2 = 0.6142) was 1.04 ± 0.022 mPa·s. It also gave a viscosity (318.15 K, 101 kPa, x2 = 0.7124) of 1.093 ± 0.022 mPa·s, a viscosity (318.15 K, 101 kPa, x2 = 0.8094) of 1.137 ± 0.022 mPa·s and a viscosity (318.15 K, 101 kPa, x2 = 0.9052) of 1.175 ± 0.022 mPa·s.
For `C[NH+](C)CCO.O=C([O-])CCCC(=O)O` + O=S1(=O)CCCC1, the viscosity (303.15 K, 101 kPa, x1 = 0.27) was 132.4 mPa·s, the viscosity (313.15 K, 101 kPa, x1 = 0.27) was 81.7 mPa·s and the viscosity (323.15 K, 101 kPa, x1 = 0.27) was 54.1 mPa·s.
For `Clc1ccccc1` + CCC(C)=O, the viscosity (303.15 K, 101 kPa, x2 = 0.0982) was 0.686 ± 0.004 mPa·s, the viscosity (303.15 K, 101 kPa, x2 = 0.247) was 0.636 ± 0.004 mPa·s and the viscosity (303.15 K, 101 kPa, x2 = 0.3771) was 0.593 ± 0.004 mPa·s. For the same compound, the viscosity (303.15 K, 101 kPa, x2 = 0.5481) was 0.541 ± 0.004 mPa·s, the viscosity (303.15 K, 101 kPa, x2 = 0.6776) was 0.499 ± 0.004 mPa·s and the viscosity (303.15 K, 101 kPa, x2 = 0.8508) was 0.482 ± 0.004 mPa·s.
For `COC(C)(C)C` + CCCO, the viscosity (293.15 K, 101 kPa, x1 = 0.0599) was 1.835 ± 0.075 mPa·s, the viscosity (298.15 K, 101 kPa, x1 = 0.0403) was 1.735 ± 0.071 mPa·s and the viscosity (298.15 K, 101 kPa, x1 = 0.1495) was 1.275 ± 0.052 mPa·s. It also gave a viscosity (298.15 K, 101.33 kPa, x1 = 0.0111) of 1.902 ± 0.029 mPa·s, a viscosity (298.15 K, 101.33 kPa, x1 = 0.0293) of 1.804 ± 0.028 mPa·s and a viscosity (298.15 K, 101.33 kPa, x1 = 0.0591) of 1.651 ± 0.026 mPa·s. For the same compound, the viscosity (298.15 K, 101.33 kPa, x1 = 0.1133) was 1.416 ± 0.022 mPa·s, the viscosity (298.15 K, 101.33 kPa, x1 = 0.1374) was 1.327 ± 0.021 mPa·s and the viscosity (298.15 K, 101.33 kPa, x1 = 0.2501) was 0.998 ± 0.016 mPa·s. The viscosity (298.15 K, 101.33 kPa, x1 = 0.3008) was 0.889 ± 0.015 mPa·s, the viscosity (298.15 K, 101.33 kPa, x1 = 0.324) was 0.85 ± 0.014 mPa·s and the viscosity (298.15 K, 101.33 kPa, x1 = 0.3581) was 0.792 ± 0.013 mPa·s. The viscosity (298.15 K, 101.33 kPa, x1 = 0.3641) was 0.779 ± 0.013 mPa·s, the viscosity (298.15 K, 101.33 kPa, x1 = 0.4004) was 0.729 ± 0.012 mPa·s and the viscosity (298.15 K, 101.33 kPa, x1 = 0.4451) was 0.671 ± 0.012 mPa·s. For the same compound, the viscosity (298.15 K, 101.33 kPa, x1 = 0.488) was 0.624 ± 0.011 mPa·s, the viscosity (298.15 K, 101.33 kPa, x1 = 0.5535) was 0.562 ± 0.01 mPa·s and the viscosity (298.15 K, 101.33 kPa, x1 = 0.6157) was 0.512 ± 0.007 mPa·s. The viscosity (298.15 K, 101.33 kPa, x1 = 0.677) was 0.471 ± 0.007 mPa·s, the viscosity (298.15 K, 101.33 kPa, x1 = 0.7585) was 0.427 ± 0.007 mPa·s and the viscosity (298.15 K, 101.33 kPa, x1 = 0.8246) was 0.397 ± 0.006 mPa·s. The viscosity (298.15 K, 101.33 kPa, x1 = 0.8813) was 0.378 ± 0.006 mPa·s, the viscosity (298.15 K, 101.33 kPa, x1 = 0.9491) was 0.356 ± 0.006 mPa·s and the viscosity (298.15 K, 101.33 kPa, x2 = 0.014) was 0.344 ± 0.006 mPa·s.
